The target of this experiment is T1, AM2 receptor (1321N1 cells transfected with CALCRL+RAMP3) (Homo sapiens, UniProt O60896+Q16602).
T1 construct: host or cells: 1321N1 cells
T1 sequence (Q16602 23-461): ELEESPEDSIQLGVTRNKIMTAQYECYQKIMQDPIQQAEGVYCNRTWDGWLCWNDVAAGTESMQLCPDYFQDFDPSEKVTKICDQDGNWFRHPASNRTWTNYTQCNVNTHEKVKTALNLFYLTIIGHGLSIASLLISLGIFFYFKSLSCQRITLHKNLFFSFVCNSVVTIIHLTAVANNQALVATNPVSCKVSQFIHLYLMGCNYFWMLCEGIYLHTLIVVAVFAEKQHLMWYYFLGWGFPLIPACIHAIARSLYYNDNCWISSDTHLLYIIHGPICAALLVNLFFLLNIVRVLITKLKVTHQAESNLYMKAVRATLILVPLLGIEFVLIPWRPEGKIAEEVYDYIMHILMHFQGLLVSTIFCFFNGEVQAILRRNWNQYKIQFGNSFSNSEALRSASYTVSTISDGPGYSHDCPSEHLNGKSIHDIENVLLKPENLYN
T1 sequence (O60896 24-148): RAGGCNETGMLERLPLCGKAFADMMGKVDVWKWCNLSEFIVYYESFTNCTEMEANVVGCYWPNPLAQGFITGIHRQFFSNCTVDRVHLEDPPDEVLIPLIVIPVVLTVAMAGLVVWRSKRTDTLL
Put plainly: AM2 receptor inhibition, LANCE cAMP agonist-antagonist competition assay. It counts as cell-based. The settings on record: inhibition of AM induced cAMP activation, read-out: AM2 D2 protocol: pIC50 (converted). Here is the method: Compounds were assessed for their ability to inhibit ligand-induced elevations of cAMP, using the Perkin Elmer LANCE cAMP assay using commercially-available cells expressing a specific receptor of interest using the following general procedure:
Compounds were prepared in dimethyl sulfoxide (DMSO—99.9% pure) (Sigma Aldrich, Cat #: D4540) added to powder stocks to produce a 20 mM solution (100% DMSO) that was sonicated at 37° C. for 10 minutes to fully dissolve the compounds. The 20 mM stocks were diluted further in DMSO to produce a 2 mM solution that was sonicated at 37° C. for 10 minutes. 2 mM stocks were dissolved in assay/stimulation buffer to produce a 400 μM solution that was sonicated at 37° C. for 10 minutes for all cAMP assays. All stocks were stored at −20° C. Then serial dilution (Dilution factor: 10) was performed to achieve the desire experimental concentrations.
Competition assays were performed according to the manufactures instructions using LANCE® TR-FRET cAMP assay kit (Perkin Elmer, Cat #: AD0264). Serial dilutions (3 μl/well) of the molecules were plated in a 384-well OptiPlate (Perkin Elmer, Cat #: 6007299) in duplicates. Appropriate controls (100% stimulation: Forskolin and 0% stimulation: Vehicle control) (6 μl/well) were included in each plate for data normalization. Following the compound addition, 6 μl of G-protein coupled receptor overexpressing cells/Alexa Fluor antibody solution (1:100 dilution) was added in each well at a desired density of 2500cells/well. The overexpressing cell lines were purchased from DiscoveRx, Birmingham, UK. After spinning the plate at 1000 rpm for 1 minute and vortexing briefly, the cells were pre-incubated with the compounds for 30 minutes at room temperature (covered). Then 3 μl of the equivalent peptide ligand (EC50 dose) was added to all the wells except vehicle and forskolin controls. The plate were then spun down at 1000 rpm for 1 minute and once finished they were vortexed briefly and covered. Cells were stimulated in the presence of the ligands for 15 minutes at room temperature. After stimulation 12 μl of detection mix (Europium-Chelate streptavidin/biotinylated cAMP tracer solution) was added to all wells and incubated for 60 minutes at room temperature. The plate was then read on the Enspire multimode Plate reader (Perkin Elmer), at; 320/340 nm excitation and 615/665 nm emission was recorded.
Assay/Stimulation Buffer (30 mL)—pH 7.4 • 28 mL Hank's Balanced salt solution (+MgCl2, +CaCl2)—(Thermo Fisher Cat #:14170112) • 150 μl HEPES (1M)—(Thermo Fisher Cat #:15630080) • 400 μl Stabilizer (DTPA) Purified BSA (7.5%)—(Perkin Elmer, Cat #: CR84-100)
The ability of a compound to inhibit the AM induced cAMP activation in AM2 receptor-expressing cells (1321N1 cells transfected with CALCRL+RAMP3, sourced from DiscoverX catalogue number 95-0169C6) was assessed using the protocol above.
On the technique in general: Time-resolved FRET reads energy transfer from a long-lived donor to a nearby acceptor.
On to `CNCc1ccccc1CN(CC(=O)Nc1ccc2c(c1)C[C@@]1(C2)C(=O)Nc2ncccc21)C(=O)C1(C)CCN(C(=O)C(C)C)CC1` [Example 16, (R)-1-Isobutyryl-4-methyl-N-(2-((methylamino)methyl)benzyl)-N-(2-oxo-2-((2′-oxo-1,1′,2′,3-tetrahydrospiro[indene-2,3′-pyrrolo[2,3-b]pyridin]-5-yl)amino)ethyl)piperidine-4-carboxamide], for which the IC50 was 3.24 nM.

With `CNCc1ccccc1CN(CC(=O)Nc1ccc2c(c1)C[C@@]1(C2)C(=O)Nc2ncccc21)C(=O)C1(C)CCN(C(=O)C(F)F)CC1` [Example 17, (R)-1-(2,2-Difluoroacetyl)-4-methyl-N-(2-((methylamino)methyl)benzyl)-N-(2-oxo-2-((2′-oxo-1,1′,2′,3-tetrahydrospiro[indene-2,3′-pyrrolo[2,3-b]pyridin]-5-yl)amino)ethyl)piperidine-4-carboxamide], the IC50 was 8.32 nM. Take `CNCc1ccccc1CN(CC(=O)Nc1ccc2c(c1)C[C@@]1(C2)C(=O)Nc2ncccc21)C(=O)C1(C)CCN(C(=O)c2ncccn2)CC1` [Example 18, (R)-4-Methyl-N-(2-((methylamino)methyl)benzyl)-N-(2-oxo-2-((2′-oxo-1,1′,2′,3-tetrahydrospiro[indene-2,3′-pyrrolo[2,3-b]pyridin]-5-yl)amino)ethyl)-1-(pyrimidine-2-carbonyl)piperidine-4-carboxamide]: the IC50 is 7.41 nM. For the compound `CNCc1ccccc1CN(CC(=O)Nc1ccc2c(c1)C[C@@]1(C2)C(=O)Nc2ncccc21)C(=O)C1(C)CCN(C(=O)c2cnccn2)CC1` [Example 19, (R)-4-Methyl-N-(2-((methylamino)methyl)benzyl)-N-(2-oxo-2-((2′-oxo-1,1′,2′,3-tetrahydrospiro[indene-2,3′-pyrrolo[2,3-b]pyridin]-5-yl)amino)ethyl)-1-(pyrazine-2-carbonyl)piperidine-4-carboxamide], the IC50 is 4.47 nM. To `CNCc1ccccc1CN(CC(=O)Nc1ccc2c(c1)CC1(C2)C(=O)Nc2ncccc21)C(=O)C1(C)CCN(C(=O)C2CC2)CC1` (centres unmarked) [Example 20, 1-(Cyclopropanecarbonyl)-4-methyl-N-(2-((methylamino)methyl)benzyl)-N-(2-oxo-2-((2′-oxo-1,1′,2′,3-tetrahydrospiro[indene-2,3′-pyrrolo[2,3-b]pyridin]-5-yl)amino)ethyl)piperidine-4-carboxamide] belongs 4.27 nM. Then `CNCc1ccccc1CN(CC(=O)Nc1ccc2c(c1)CC1(C2)C(=O)Nc2ncccc21)C(=O)C1(C)CCN(C(=O)COC)CC1` (centres unmarked) [Example 21, 1-(2-Methoxyacetyl)-4-methyl-N-(2-((methylamino)methyl)benzyl)-N-(2-oxo-2-((2′-oxo-1,1′,2′,3-tetrahydrospiro[indene-2,3′-pyrrolo[2,3-b]pyridin]-5-yl)amino)ethyl)piperidine-4-carboxamide], with 1.51 nM; and `CNCc1ccccc1CN(CC(=O)Nc1ccc2c(c1)CC1(C2)C(=O)Nc2ncccc21)C(=O)C1(C)CCN(C(=O)CN)CC1` (centres unmarked) [Example 22, 1-(2-Aminoacetyl)-4-methyl-N-(2-((methylamino)methyl)benzyl)-N-(2-oxo-2-((2′-oxo-1,1′,2′,3-tetrahydrospiro[indene-2,3′-pyrrolo[2,3-b]pyridin]-5-yl)amino)ethyl)piperidine-4-carboxamide], with 0.631 nM. Then `CNCc1ccccc1CN(CC(=O)Nc1ccc2c(c1)C[C@@]1(C2)C(=O)Nc2ncccc21)C(=O)C1(C)CCN(C(=O)C(C)NC)CC1` (stereo partly drawn) [Example 23, 4-Methyl-N-(2-((methylamino)methyl)benzyl)-1-(2-(methylamino)propanoyl)-N-(2-oxo-2-(((R)-2′-oxo-1,1′,2′,3-tetrahydrospiro[indene-2,3′-pyrrolo[2,3-b]pyridin]-5-yl)amino)ethyl)piperidine-4-carboxamide], with 1.38 nM.

For the compound `CNCc1ccccc1CN(CC(=O)Nc1ccc2c(c1)C[C@@]1(C2)C(=O)Nc2ncccc21)C(=O)C1(C)CCN(C(=O)c2ccncn2)CC1` [Example 24, (R)-4-Methyl-N-(2-((methylamino)methyl)benzyl)-N-(2-oxo-2-((2′-oxo-1,1′,2′,3-tetrahydrospiro[indene-2,3′-pyrrolo[2,3-b]pyridin]-5-yl)amino)ethyl)-1-(pyrimidine-4-carbonyl) piperidine-4-carboxamide], the IC50 was 2.95 nM. As to `CNCc1ccccc1CN(CC(=O)Nc1ccc2c(c1)C[C@@]1(C2)C(=O)Nc2ncccc21)C(=O)C1(C)CCN(C(=O)c2ccn[nH]2)CC1` [Example 25, (R)-4-Methyl-N-(2-((methylamino)methyl)benzyl)-N-(2-oxo-2-((2′-oxo-1,1′,2′,3-tetrahydrospiro[indene-2,3′-pyrrolo[2,3-b]pyridin]-5-yl)amino)ethyl)-1-(1H-pyrazole-5-carbonyl) piperidine-4-carboxamide], the IC50 is 2.14 nM.

As to `CNCc1ccccc1CN(CC(=O)Nc1ccc2c(c1)C[C@@]1(C2)C(=O)Nc2ncccc21)C(=O)C1(C)CCN(C(=O)c2cccnn2)CC1` [Example 26, (R)-4-Methyl-N-(2-((methylamino)methyl)benzyl)-N-(2-oxo-2-((2′-oxo-1,1′,2′,3-tetrahydrospiro[indene-2,3′-pyrrolo[2,3-b]pyridin]-5-yl)amino)ethyl)-1-(pyridazine-3-carbonyl) piperidine-4-carboxamide], the IC50 was 4.57 nM. To `CNCc1ccccc1CN(CC(=O)Nc1ccc2c(c1)C[C@@]1(C2)C(=O)Nc2ncccc21)C(=O)C1(C)CCN(C(=O)CC2CC2)CC1` [Example 27, (R)-1-(2-Cyclopropylacetyl)-4-methyl-N-(2-((methylamino)methyl)benzyl)-N-(2-oxo-2-((2′-oxo-1,1′,2′,3-tetrahydrospiro[indene-2,3′-pyrrolo[2,3-b]pyridin]-5-yl)amino)ethyl)piperidine-4-carboxamide] belongs 95.5 nM; to `CNCc1ccccc1CN(CC(=O)Nc1ccc2c(c1)C[C@@]1(C2)C(=O)Nc2ncccc21)C(=O)C1(C)CCN(C(=O)CN)CC1` [Example 28, (R)-1-(2-Aminoacetyl)-4-methyl-N-(2-((methylamino)methyl)benzyl)-N-(2-oxo-2-((2′-oxo-1,1′,2′,3-tetrahydrospiro[indene-2,3′-pyrrolo[2,3-b]pyridin]-5-yl)amino)ethyl)piperidine-4-carboxamide], 3.55 nM. To `CNCc1ccccc1CN(CC(=O)Nc1ccc2c(c1)C[C@@]1(C2)C(=O)Nc2ncccc21)C(=O)C1(C)CCN(C(=O)c2ccc(N)cn2)CC1` [Example 29, (R)-1-(5-Aminopicolinoyl)-4-methyl-N-(2-((methylamino)methyl)benzyl)-N-(2-oxo-2-((2′-oxo-1,1′,2′,3-tetrahydrospiro[indene-2,3′-pyrrolo[2,3-b]pyridin]-5-yl)amino)ethyl)piperidine-4-carboxamide] belongs 17.8 nM. `CNCc1ccccc1CN(CC(=O)Nc1ccc2c(c1)CC1(C2)C(=O)Nc2ncccc21)C(=O)C1(C)CCN(C(=O)CN2CCNCC2)CC1` (centres unmarked) [Example 30, 4-Methyl-N-(2-((methylamino)methyl)benzyl)-N-(2-oxo-2-((2′-oxo-1,1′,2′,3-tetrahydrospiro[indene-2,3′-pyrrolo[2,3-b]pyridin]-5-yl)amino)ethyl)-1-(2-(piperazin-1-yl)acetyl)piperidine-4-carboxamide]: the IC50 is 0.589 nM.

As for `CNCc1ccccc1CN(CC(=O)Nc1ccc2c(c1)CC1(C2)C(=O)Nc2ncccc21)C(=O)C1(C)CCN(C(=O)CCN(C)C)CC1` (centres unmarked) [Example 31], the IC50 was 1.15 nM. Then `CNCc1ccccc1CN(CC(=O)Nc1ccc2c(c1)C[C@@]1(C2)C(=O)Nc2ncccc21)C(=O)C1(C)CCN(C(=O)CN2CCN(C(C)=O)CC2)CC1` [Example 32, (R)-1-(2-(4-Acetylpiperazin-1-yl)acetyl)-4-methyl-N-(2-((methylamino)methyl)benzyl)-N-(2-oxo-2-((2′-oxo-1,1′,2′,3-tetrahydrospiro[indene-2,3′-pyrrolo[2,3-b]pyridin]-5-yl)amino)ethyl)piperidine-4-carboxamide], with 2.34 nM.

The values above are taken from patent US20230036854A1, “HETEROCYCLIC SPIRO-COMPOUNDS AS AM2 RECEPTOR INHIBITORS” (THE UNIVERSITY OF SHEFFIELD, priority 2018, published 2023).
